Laboratory results as given in patent publication US9120756B2, “Substituted phenylureas and phenylamides as vanilloid receptor ligands” (Gruenenthal GmbH, priority 2009, dated 2015).

Columns and labels:
Format in all cases: cell-based
[1] = target: rat-species vanilloid receptor 1 (VR1/TRPV1) (Rattus norvegicus (Rat), UniProt O35433); test: FLIPR Ca2+ influx assay on rat dorsal root ganglia cells, capsaicin stimulus (method I); conditions: for inhibition at 5 µM: read-out: Ki (rat) Cap: inhibition (as a percentage) @ 5 μM, capsaicin, inhibition determined at 5 μM; for Ki: capsaicin (Cap)
rat-species vanilloid receptor 1 (VR1/TRPV1), sequence (O35433 whole entry): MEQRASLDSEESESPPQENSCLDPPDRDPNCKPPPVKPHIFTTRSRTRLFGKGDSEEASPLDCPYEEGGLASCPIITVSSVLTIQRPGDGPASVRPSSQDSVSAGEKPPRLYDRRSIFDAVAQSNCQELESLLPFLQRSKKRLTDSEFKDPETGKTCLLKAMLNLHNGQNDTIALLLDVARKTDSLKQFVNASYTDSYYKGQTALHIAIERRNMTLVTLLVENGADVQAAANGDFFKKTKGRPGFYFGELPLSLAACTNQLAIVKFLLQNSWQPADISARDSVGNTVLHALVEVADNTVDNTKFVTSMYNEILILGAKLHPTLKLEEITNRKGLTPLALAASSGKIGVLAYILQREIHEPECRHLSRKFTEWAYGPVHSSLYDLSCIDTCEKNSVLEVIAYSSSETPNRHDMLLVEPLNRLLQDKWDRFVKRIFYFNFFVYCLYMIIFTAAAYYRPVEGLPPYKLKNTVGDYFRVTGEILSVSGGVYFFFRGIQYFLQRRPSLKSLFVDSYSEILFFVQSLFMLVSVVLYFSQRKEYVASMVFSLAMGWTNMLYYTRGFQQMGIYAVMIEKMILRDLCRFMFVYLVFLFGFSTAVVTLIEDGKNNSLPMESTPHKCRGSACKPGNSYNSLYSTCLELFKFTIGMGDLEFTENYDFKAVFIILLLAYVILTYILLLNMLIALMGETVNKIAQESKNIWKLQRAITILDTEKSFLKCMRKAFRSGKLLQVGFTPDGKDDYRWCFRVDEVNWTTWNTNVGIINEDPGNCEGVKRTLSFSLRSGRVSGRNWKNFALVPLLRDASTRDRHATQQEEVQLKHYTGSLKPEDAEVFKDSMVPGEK
Procedure: (§1) The agonistic or antagonistic effect of the substances to be tested on the rat-species vanilloid receptor 1 (VR1/TRPV1) can be determined using the following assay. In this assay, the influx of Ca^2+ through the receptor channel is quantified with the aid of a Ca^2+-sensitive dye (type Fluo-4, Molecular Probes Europe BV, Leiden, the Netherlands) in a fluorescent imaging plate reader (FLIPR, Molecular Devices, Sunnyvale, USA).
Complete medium: 50 ml HAMS F12 nutrient mixture (Gibco Invitrogen GmbH, Karlsruhe, Germany) with
10% by volume of FCS (foetal calf serum, Gibco Invitrogen GmbH, Karlsruhe, Germany, heat-inactivated);
2 mM L-glutamine (Sigma, Munich, Germany);
1% by weight of AA solution (antibiotic/antimyotic solution, PAA, Pasching, Austria) and 25 ng/ml NGF medium (2.5 S, Gibco Invitrogen GmbH, Karlsruhe, Germany)
Cell culture plate: Poly-D-lysine-coated, black 96-well plates having a clear base (96-well black/clear plate, BD Biosciences, Heidelberg, Germany) are additionally coated with laminin (Gibco Invitrogen GmbH, Karlsruhe, Germany), the laminin being diluted with PBS (Ca—Mg-free PBS, Gibco Invitrogen GmbH, Karlsruhe, Germany) to a concentration of 100 μg/ml. Aliquots having a laminin concentration of 100 μg/ml are removed and stored at −20° C. The aliquots are diluted with PBS in a ratio of 1:10 to 10 μg/ml of laminin and respectively 50 μL of the solution are pipetted into a recess in the cell culture plate. The cell culture plates are incubated for at least two hours at 37° C., the excess solution is removed by suction and the recesses are each washed twice with PBS. The coated cell culture plates are stored with excess PBS which is not removed until just before the feeding of the cells.
The vertebral column is removed from decapitated rats and placed immediately into cold HBSS buffer (Hank's buffered saline solution, Gibco Invitrogen GmbH, Karlsruhe, Germany), i.e. buffer located in an ice bath, mixed with 1% by volume (percent by volume) of an AA solution (antibiotic/antimyotic solution, PAA, Pasching, Austria). The vertebral column is cut longitudinally and removed together with fasciae from the vertebral canal. Subsequently, the dorsal root ganglia (DRG) are removed and again stored in cold HBSS buffer mixed with 1% by volume of an AA solution. The DRG, from which all blood remnants and spinal nerves have been removed, are transferred in each case to 500 μL of cold type 2 collagenase (PAA, Pasching, Austria) and incubated for 35 minutes at 37° C. After the addition of 2.5% by volume of trypsin (PAA, Pasching, Austria), incubation is continued for 10 minutes at 37° C. After complete incubation, the enzyme solution is carefully pipetted off and 500 μL of complete medium are added to each of the remaining DRG. […] The contents of each Falcon tube are respectively filtered through a 70 μm Falcon filter element and centrifuged for 10 minutes at 1,200 rpm and RT. The resulting pellet is respectively taken up in 250 μL of complete medium and the cell count is determined.
The number of cells in the suspension is set to 3×10^5 per ml and 150 μL of this suspension are in each case introduced into a recess in the cell culture plates coated as described hereinbefore. […] Subsequently, the cells are loaded with 2 μM of Fluo-4 and 0.01% by volume of Pluronic F127 (Molecular Probes Europe BV, Leiden, the Netherlands) in HBSS buffer (Hank's buffered saline solution, Gibco Invitrogen GmbH, Karlsruhe, Germany) for 30 min at 37° C., washed 3 times with HBSS buffer and after further incubation for 15 minutes at RT used for Ca^2+ measurement in a FLIPR assay. The Ca^2+-dependent fluorescence is in this case measured before and after the addition of substances (λex=488 nm, λem=540 nm). Quantification is carried out by measuring the highest fluorescence intensity (FC, fluorescence counts) over time.
The FLIPR protocol consists of 2 substance additions.

hVR1 [2] = target: T1, hVR1 (Homo sapiens (Human), UniProt Q8NER1); test: FLIPR Ca2+ influx assay on CHO K1 cells transfected with the VR1 gene, capsaicin stimulus (method II); parameters: key to Ki (human being) Cap: result in words (NE / AG): AG=agonist; pAG=partial agonist; NE=no effect; conditions: for Ki (human being) Cap: result in words (NE / AG): capsaicin; for inhibition at 5 µM: CHO-K1, read-out: Ki (human being) Cap column: inhibition (as a percentage) @ 5 μM, capsaicin, inhibition determined at 5 μM; for Ki: capsaicin (Cap), read-out: Ki (human being) [nM] Cap
T1 sequence (Q8NER1 whole entry): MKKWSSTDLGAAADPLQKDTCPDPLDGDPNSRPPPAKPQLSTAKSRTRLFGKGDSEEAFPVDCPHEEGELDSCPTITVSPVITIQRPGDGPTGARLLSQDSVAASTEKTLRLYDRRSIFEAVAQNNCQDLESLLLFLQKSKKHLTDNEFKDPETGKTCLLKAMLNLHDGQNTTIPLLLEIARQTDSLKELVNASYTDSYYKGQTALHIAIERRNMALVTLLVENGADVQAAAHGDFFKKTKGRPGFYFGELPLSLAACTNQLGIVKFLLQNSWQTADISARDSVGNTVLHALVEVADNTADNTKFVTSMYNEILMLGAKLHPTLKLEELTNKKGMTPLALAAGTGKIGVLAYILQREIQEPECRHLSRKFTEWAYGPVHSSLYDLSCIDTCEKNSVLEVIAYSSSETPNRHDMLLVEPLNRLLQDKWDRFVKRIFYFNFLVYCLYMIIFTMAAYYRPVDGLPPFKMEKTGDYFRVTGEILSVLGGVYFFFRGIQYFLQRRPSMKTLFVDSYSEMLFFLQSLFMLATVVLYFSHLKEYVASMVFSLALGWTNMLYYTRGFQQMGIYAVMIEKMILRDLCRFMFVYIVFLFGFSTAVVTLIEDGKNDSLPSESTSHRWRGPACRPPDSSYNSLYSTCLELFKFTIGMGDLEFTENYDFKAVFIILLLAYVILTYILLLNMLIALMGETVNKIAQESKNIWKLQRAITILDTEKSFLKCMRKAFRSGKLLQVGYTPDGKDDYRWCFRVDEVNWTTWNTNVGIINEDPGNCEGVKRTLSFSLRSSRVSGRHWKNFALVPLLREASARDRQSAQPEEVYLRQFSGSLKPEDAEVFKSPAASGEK
From the text: In the process, the Ca^2+ influx is quantified in the FLIPR assay with the aid of a Ca^2+-sensitive dye (type Fluo-4, Molecular Probes Europe BV, Leiden, the Netherlands) in a fluorescent imaging plate reader (FLIPR, Molecular Devices, Sunnyvale, USA), as described hereinafter.
as §1, with “the” for “the rat-species”, “(VR1)” for “(VR1/TRPV1)”, “can also” for “can”, “the” for “the receptor”
Chinese hamster ovary cells (CHO K1 cells, European Collection of Cell Cultures (ECACC) United Kingdom) are stably transfected with the VR1 gene. For functional testing, these cells are plated out on poly-D-lysine-coated black 96-well plates having a clear base (BD Biosciences, Heidelberg, Germany) at a density of 25,000 cells/well. The cells are incubated overnight at 37° C. and 5% CO2 in a culture medium (Ham's F12 nutrient mixture, 10% by volume of FCS (foetal calf serum), 18 μg/ml of L-proline). The next day the cells are incubated with Fluo-4 (Fluo-4 2 μM, 0.01% by volume of Pluronic F127, Molecular Probes in HBSS (Hank's buffered saline solution), Gibco Invitrogen GmbH, Karlsruhe, Germany) for 30 minutes at 37° C. Subsequently, the plates are washed three times with HBSS buffer and after further incubation for 15 minutes at RT used for Ca^2+ measurement in a FLIPR assay. The Ca^2+-dependent fluorescence is measured before and after the addition of the substances to be tested (λex wavelength=488 nm, λem=540 nm). Quantification is carried out by measuring the highest fluorescence intensity (FC, fluorescence counts) over time.
The FLIPR protocol consists of 2 substance additions. First the compounds to be tested (10 μM) are pipetted onto the cells and the Ca^2+ influx is compared with the control (capsaicin 10 μM) (% activation based on the Ca^2+ signal after the addition of 10 μM of capsaicin). After 5 minutes' incubation, 100 nM of capsaicin are applied and the Ca^2+ influx is also determined.
Desensitising agonists and antagonists led to suppression of the Ca^2+ influx.
Starting from the percentage displacement caused by different concentrations of the compounds to be tested of general formula I, IC50 inhibitory concentrations which cause a 50-percent displacement of capsaicin were calculated. Ki values for the test substances were obtained by conversion by means of the Cheng-Prusoff equation (Cheng, Prusoff; Biochem. Pharmacol. 22, 3099-3108, 1973).

hVR1 [3] = target: T1, hVR1; test: FLIPR assay hVR1, after pH stimulus; parameters: key to IC50 (human being) hVR1 pH: result in words (NE / AG): AG=agonist; pAG=partial agonist; NE=no effect; conditions: for inhibition at 10 µM: read-out: IC50 (human being) hVR1 pH: inhibition (as a percentage) @ 10 μM, inhibition determined at 10 μM
Procedure: In this assay, the influx of Ca^2+ through the channel is quantified with the aid of a Ca^2+-sensitive dye (type Fluo-4, Molecular Probes Europe BV, Leiden, the Netherlands) in a fluorescent imaging plate reader (FLIPR, Molecular Devices, Sunnyvale, USA). Chinese hamster ovary cells (CHO K1 cells, European Collection of Cell Cultures (ECACC) United Kingdom) are stably transfected with the VR1 gene. For functional testing, these cells are plated out on poly-D-lysine-coated black 96-well plates having a clear base (BD Biosciences, Heidelberg, Germany) at a density of 25,000 cells/well. […] Subsequently, the plates are washed three times with HBSS buffer and after further incubation for 15 minutes at RT used for Ca^2+ measurement in a FLIPR assay. […] Quantification is carried out by measuring the highest fluorescence intensity (FC, fluorescence counts) over time. The FLIPR protocol consists of 2 substance additions. […] Desensitising agonists and antagonists led to suppression of the Ca^2+ influx. […] Ki values for the test substances were obtained by conversion by means of the Cheng-Prusoff equation (Cheng, Prusoff; Biochem. Pharmacol. 22, 3099-3108, 1973).

inhibition at 5 µM [1] [%] | IC50 (human being) hVR1 pH: result in words (NE / AG) (hVR1 [3]) | Ki (hVR1 [2]) [nM] | Compound | other results
25 | NE |  | CC(C(=O)NCc1cc(C(C)(C)C)n[nH]1)c1ccc(NS(C)(=O)=O)c(F)c1 (stereo not shown) [Example 1, N-((3-tert-butyl-1H-pyrazol-5-yl)methyl)-2-(3-fluoro-4-(methylsulphonamido)phenyl)propanamide] | Ki (human being) Cap: result in words (NE / AG) (hVR1 [2]): NE
25 | NE |  | C[C@H](C(=O)NCc1cc(C(C)(C)C)n[nH]1)c1ccc(NS(C)(=O)=O)c(F)c1 [Example 2, (S)-N-((3-tert-butyl-1H-pyrazol-5-yl)methyl)-2-(3-fluoro-4-(methylsulphonamido)phenyl)propanamide] | Ki (human being) Cap: result in words (NE / AG) (hVR1 [2]): NE
14 | NE |  | CC(C(=O)NCc1cc(C(C)(C)C)nn1C)c1ccc(NS(C)(=O)=O)c(F)c1 (stereo not shown) [Example 3, N-((3-tert-butyl-1-methyl-1H-pyrazol-5-yl)methyl)-2-(3-fluoro-4-(methylsulphonamido)phenyl)propanamide] | inhibition at 5 µM (hVR1 [2]): 12%
20 | NE |  | C[C@H](C(=O)NCc1cc(C(C)(C)C)nn1C)c1ccc(NS(C)(=O)=O)c(F)c1 [Example 4, (S)-N-((3-tert-butyl-1-methyl-1H-pyrazol-5-yl)methyl)-2-(3-fluoro-4-(methylsulphonamido)phenyl)propanamide] | inhibition at 5 µM (hVR1 [2]): 9%
 |  | 27.7 | CCCCCCn1nc(C(C)(C)C)cc1CNC(=O)[C@@H](C)c1ccc(NS(C)(=O)=O)c(F)c1 [Example 6, (S)-N-((3-tert-butyl-1-hexyl-1H-pyrazol-5-yl)methyl)-2-(3-fluoro-4-(methylsulphonamido)phenyl)propanamide] | Ki [1]: 14.5 nM; inhibition at 10 µM (hVR1 [3]): 13%
 |  |  | Cc1ccc(-n2nc(C(C)(C)C)cc2CNC(=O)C(C)c2ccc(NS(C)(=O)=O)c(F)c2)cc1 (stereo not shown) [Example 12, N-((3-tert-butyl-1-p-tolyl-1H-pyrazol-5-yl)methyl)-2-(3-fluoro-4-(methylsulphonamido)phenyl)propanamide] | inhibition at 10 µM (hVR1 [3]): 40%
 |  | 75.2 | CC(C(=O)NCc1cc(C(C)(C)C)nn1-c1ccc(C(C)(C)C)cc1)c1ccc(NS(C)(=O)=O)c(F)c1 (stereo not shown) [Example 13, N-((3-tert-butyl-1-(4-tert-butylphenyl)-1H-pyrazol-5-yl)methyl)-2-(3-fluoro-4-(methylsulphonamido)phenyl)propanamide] | Ki [1]: 25.9 nM
 |  |  | C[C@H](C(=O)NCc1cc(C(C)(C)C)nn1-c1cccc(Cl)c1)c1ccc(NS(C)(=O)=O)c(F)c1 [Example 17, (S)-N-((3-tert-butyl-1-(3-chlorophenyl)-1H-pyrazol-5-yl)methyl)-2-(3-fluoro-4-(methylsulphonamido)phenyl)propanamide] | inhibition at 10 µM (hVR1 [3]): 37%
 | NE | 114 | CC(C(=O)NCc1cc(C(C)(C)C)nn1-c1cccc(Cl)c1)c1ccc(N2CCCS2(=O)=O)c(F)c1 (stereo not shown) [Example 55, N-((3-tert-butyl-1-(3-chlorophenyl)-1H-pyrazol-5-yl)methyl)-2-[4-(1,1-dioxidoisothiazolidin-2-yl)-3-fluorophenyl]propanamide] | 
 |  |  | CC(C(=O)NCc1cc(C(F)(F)F)nn1-c1cccc(Cl)c1)c1ccc(C(=O)Nc2ccccc2)cc1 (stereo not shown) [Example 143, 4-(1-((1-(3-chlorophenyl)-3-(trifluoromethyl)-1H-pyrazol-5-yl)methylamino)-1-oxopropan-2-yl)-N-phenylbenzamide] | inhibition at 1 µM (hVR1 [2]; CHO-K1, read-out: Ki (human being) inhibition (as a percentage) @ 1 μM, capsaicin, inhibition determined at 1 μM): 56%
 |  |  | CC(C)(C)c1cc(CNC(=O)Nc2ccc(N3CCOCC3)c(F)c2)n(-c2cccc(Cl)c2)n1 [Example 144, 1-((3-tert-butyl-1-(3-chlorophenyl)-1H-pyrazol-5-yl)methyl)-3-(3-fluoro-4-morpholinphenyl)urea] | Ki (human being) Cap: result in words (NE / AG) (hVR1 [2]): AG
 |  | 26 | O=C(Cc1cc(F)c(O)c(F)c1)NCc1cc(C(F)(F)F)nn1-c1cccc(Cl)c1 [Example 147, N-((1-(3-chlorophenyl)-3-(trifluoromethyl)-1H-pyrazol-5-yl)methyl)-2-(3,5-difluoro-4-hydroxyphenyl)acetamide] | 
 |  | 16.3 | N-((1-(3-chlorophenyl)-3-cyclopropyl-1H-pyrazol-5-yl)methyl)-2-(3-fluoro-4-(methylsulfonylmethyl)phenyl)propanamide [Example 128] | 
